# Assay results taken from patent publication US12534436B2, “Disubstituted adamantyl derivative or pharmaceutically acceptable salt thereof, and pharmaceutical composition for suppressing cancer growth comprising same as active ingredient” (ONECUREGEN CO., LTD., priority 2020, dated 2026).
# pIC50: −log10 of the molar value.
# System: HIF-1 (HRE-dependent luciferase reporter)
# Assay: HRE-luciferase assay, screening of HIF-1 inhibitors in HCT116 cells
# Type: cell-based, human
# Conditions: HCT116 cells stably expressing HRE-dependent luciferase reporter, hypoxic conditions, 12 hours; means of three experiments
# Description: HCT116 cells stably expressing the HRE-dependent luciferase reporter were treated with the disubstituted adamantyl derivative prepared in the above example under hypoxic conditions for 12 hours before measuring luciferase activity.
# In HCT116 cells treated with disubstituted adamantyl derivatives, luciferase activity was investigated using HRE-luciferase assay. The HRE-luciferase reporter assay was performed as previously described using the luciferase assay system (Promega, Madison, WI, USA) according to the manufacturer's instructions (Naik, R. et al. Synthesis and Structure-Activity Relationship of (E)Phenoxyacrylic Amide Derivatives as Hypoxia-Inducible Factor (HIF) 1α Inhibitors. J. Med. Chem. 55, 10564-1057 (2012)). Luciferase activity was measured using a Victor X light luminescence reader (PerkinElmer, Boston, MA, USA).
row,Structure (SMILES),pIC50
1,"COc1ccc(COC(=O)C23CC4CC(CC(C4)C2c2ccc(OCC(=O)Nc4cccc(C(F)(F)F)c4)cc2)C3)cc1OC (stereo not shown) [Compound 14a, 3,4-Dimethoxybenzyl-2-(4-(2-oxo-2-(3-(trifluoromethyl)phenylamino)ethoxy)phenyl) adamantane-1-ylcarboxylae]",< 4.70
2,"COc1ccc(COC(=O)C23CC4CC(CC(C4)C2c2ccc(OCC(=O)Nc4cccc5cccnc45)cc2)C3)cc1OC (stereo not shown) [Compound 14b, 3,4-Dimethoxybenzyl-2-(4-(2-oxo-2-(quinolin-8-ylamino)ethoxy)phenyl) adamantane-1-ylcarboxylate]",< 4.70
3,"CN1CCN(C(=O)COc2ccc(C34CC5CC(CC(C(=O)N6CCN(Cc7ccc(C(F)(F)F)cc7)CC6)(C5)C3)C4)cc2)CC1 [Compound 17b, 1-(4-Methylpiperazin-1-yl)-2-(4-(5-(4-(4-(trifluoromethyl)benzyl)piperazine-1-carbonyl)adamantan-1-yl-)phenoxy) ethanone]",5.66
4,"CN1CCN(C(=O)COc2ccc(C34CC5CC(CC(C(=O)NCc6ccco6)(C5)C3)C4)cc2)CC1 [Compound 17a, N-(Furan-2-ylmethyl)-5-(4-(2-(4-methylpiperazin-1-yl)-2-oxoethoxy)phenyl) adamantan-1-yl-carboxamide]",< 4.70
5,"COc1ccc(COC(=O)C23CC4CC(CC(C4)C2c2ccc(OCC(=O)N4CCN(C)CC4)cc2)C3)cc1OC (stereo not shown) [Compound 14d, 3,4-Dimethoxybenzyl-2-(4-(2-(4-methylpiperazin-1-yl)-2-oxoethoxy)phenyl) adamantane-1-ylcarboxylate]",5.78
6,"COc1ccc(COC(=O)C23CC4CC(CC(C4)C2c2ccc(OCC(=O)NCc4ccco4)cc2)C3)cc1OC (stereo not shown) [Compound 14c, 3,4-Dimethoxybenzyl-2-(4-(2-(furan-2-ylmethylamino)-2-oxoethoxy)phenyl) adamantane-1-ylcarboxylate]",4.65

# Same assay, conditions: Homo sapiens, HCT-116; HCT116 cells stably expressing HRE-dependent luciferase reporter, hypoxic conditions, 12 hours; means of three experiments
row,Structure (SMILES),pIC50
1,"COC(=O)c1cccc(NC(=O)COc2ccc(C34CC5CC(CC(C(=O)Nc6ccccn6)(C5)C3)C4)cc2)c1 [Compound 10i, Methyl-3-(2-(4-(3-(pyridin-2-ylcarbamoyl)-adamantan-1-yl)phenoxy)acetamido)benzoate]",5.62
2,"COC(=O)c1cccc(NC(=O)COc2ccc(C34CC5CC(CC(C5)C3C(=O)OCCc3ccc(OC)c(OC)c3)C4)cc2)c1 (stereo not shown) [Compound 10d, Methyl-3-(2-(4-(2-((3,4-dimethoxyphenethoxy)carbonyl)adamantane-1-yl)phenoxy)acetamido)benzoate]",< 4.70
3,"COc1ccc(CN2CCN(C(=O)C34CC5CC(C3)CC(c3ccc(OCC(=O)N6CCN(C)CC6)cc3)(C5)C4)CC2)cc1 [Compound 17c, 2-(4-(5-(4-(4-Methoxybenzyl)piperazine-1-carbonyl)adamantan-1-yl)phenoxy)-1-(4-methylpiperazin-1-yl) ethanone]",5.02
4,"COC(=O)c1cccc(NC(=O)COc2ccc(C34CC5CC(C3)C(C(=O)OCc3ccc(OC)c(OC)c3)C(C5)C4)cc2)c1 (stereo not shown) [Compound 10c, Methyl-3-(2-(4-(4-((3,4-dimethoxybenzyloxy)carbonyl)adamantane-1-yl)phenoxy)acetamido)benzoate]",5.63
5,"CNC(=O)C12CC3CC(C1)CC(c1ccc(OCC(=O)Nc4cccc(C(=O)OC)c4)cc1)(C3)C2 [Compound 10f, Methyl-3-(2-(4-(3-methylcarbamoyl-adamantan-1-yl)phenoxy)acetamido)benzoate]",4.78
6,"COc1cc2c(cc1OC)CN(C(=O)C13CC4CC(C1)CC(c1ccc(OCC(=O)N5CCN(C)CC5)cc1)(C4)C3)CC2 [Compound 21b, 2-(4-(3-(6,7-Dimethoxy-1,2,3,4-tetrahydroisoquinoline-2-carbonyl)adamantan-1-yl)phenoxy)-1-(4-methylpiperazin-1-yl) ethanone]",5.02
7,"COC(=O)c1cccc(NC(=O)COc2ccc(C34CC5CC(CC(C(=O)NCc6ccccc6)(C5)C3)C4)cc2)c1 [Compound 10g, Methyl-3-(2-(4-(3-benzylcarbamoyl-adamantan-1-yl)phenoxy)acetamido)benzoate]",5.89
8,"COc1cc2c(cc1OC)CN(C(=O)C13CC4CC(C1)CC(c1ccc(OCC(=O)N5CCOCC5)cc1)(C4)C3)CC2 [Compound 21a, 2-(4-(3-(6,7-Dimethoxy-1,2,3,4-tetrahydroisoquinoline-2-carbonyl)adamantan-1-yl)phenoxy)-1-morpholinoethanone]",5.27
9,"COC(=O)c1cccc(NC(=O)COc2ccc(C34CC5CC(CC(C(=O)OCc6ccco6)(C5)C3)C4)cc2)c1 [Compound 10e, Methyl-3-(2-(4-(3-((furan-2-ylmethoxy)carbonyl)adamantane-1-yl)phenoxy)acetamido)benzoate]",5.19
10,"COC(=O)c1cccc(NC(=O)COc2ccc(C34CC5CC(CC(C(=O)N6CCc7cc(OC)c(OC)cc7C6)(C5)C3)C4)cc2)c1 [Compound 10j, Methyl-3-(2-(4-(3-(6,7-dimethoxy-1,2,3,4-tetrahydroisoquinoline-2-carbonyl)-adamantan-1-yl)phenoxy)acetamido)benzoate]",5.89
11,"COC(=O)c1cccc(NC(=O)COc2ccc(C34CC5CC(C3)C(C(=O)OCc3ccc(OC)cc3)C(C5)C4)cc2)c1 (stereo not shown) [Compound 10b, Methyl-3-(2-(4-(4-((4-methoxybenzyloxy)carbonyl)adamantane-1-yl)phenoxy)acetamido)benzoate]",< 4.70
12,"COC(=O)c1cccc(NC(=O)COc2ccc(C34CC5CC(CC(C(=O)NCc6ccco6)(C5)C3)C4)cc2)c1 [Compound 10h, Methyl-3-(2-(4-(3-(furan-2-ylmethylcarbamoyl)-adamantan-1-yl)phenoxy)acetamido)benzoate]",5.52
13,"COC(=O)c1cccc(NC(=O)COc2ccc(C34CC5CC(CC(C(=O)OC)(C5)C3)C4)cc2)c1 [Compound 10a, Methyl-3-(2-(4-(3-((methoxy)carbonyl)adamantane-1-yl)phenoxy)acetamido)benzoate]",4.74
